Data published in patent publication US11185524B2 (Novus International, Inc., priority 2019, dated 2021).
Marks after values point to notes of the source that are not given here.

Experiments:
rumen microorganisms = experiment: In vitro evaluation of rumen protection: degradation by rumen microorganisms in rumen fluid incubation; assay type: in vitro ADME, Holstein steers (rumen fluid donors); details: male, Holstein, cattle, 12 h
Protocol: Schematics of the HMTBa derivatives are presented below in Table. 1. Following the methodology of Patterson and Kung (J. Dairy Sci., 1988, vol. 71, pp. 3292-3301), fermentation substrate comprising casein, cellobiose, starch, pectin, and cellulose was added at a rate of 0.45 g to 250 mL fermentation flasks. HMTBa derivatives were randomly assigned to flasks and thoroughly mixed to ensure that all compounds were incorporated into the substrate. Methionine hydroxy analog (MHA), polymer encapsulated methionine (eMet) were also included as controls, as well as a blank. A total of 28 fermentation flasks were used, resulting in 4 replicates per treatment for each of the two experiments. Three cannulated Holstein steers were utilized as rumen fluid donors. Steers were housed on pasture, allowed to graze freely, and provided free choice supplement. Approximately 1000 mL of rumen fluid and a handful of rumen contents were obtained from each steer. Rumen fluid and contents were combined in pre-heated thermoses, transported to the lab, blended using a hand blender, and strained through 8 layers of cheese cloth. Combined rumen fluid was maintained under CO2 and thoroughly mixed. […] Due to variability associated with in vitro methodology, replicates were evaluated for similarity. […] Recovery of HMTBa or methionine was determined and expressed relative to initial amount of HMTBA or methionine (active) added. […]

[1] = in vivo

Row | Free Active recovered (rumen microorganisms) | Ruminal undegradability (estimated ruminal stability) (rumen microorganisms) | HMTBa in plasma [1] | L-methionine in plasma [1] | Methionine equivalents in plasma (sum of L-methionine, D-methionine, and HMTBa) [1] | Structure (SMILES)
1 | 439.6^c ppm | 56.64^c |  |  |  | CSCCC1OC(=O)C(CCSC)OC1=O (centres unmarked) [Cyclic Dimer, 3,6-bis(2-methylthio)ethyl-1,4-dioxane-2,5-dione]
2 |  |  | 0.324^a μg/mL | 5.312^a μg/mL | 5.666^a μg/mL | CSCCC(O)C(=O)O (centres unmarked) [MHA, Methionine hydroxy analog]
